From ChEMBL document CHEMBL3739261, “Synthesis and antibacterial activity evaluation of C-5 side chain modified analogues of FYL-66, a potential agent against methicillin-resistant Staphylococcus aureus” (Medchemcomm, 2015) come the findings set out here.

One may read the MIC as the smallest concentration in the dilution series that meets the test's criterion for growth inhibition. The low end stands for inhibition by little substance, the high end for a need for much substance. By IC50 is commonly meant the concentration that inhibits the measured activity by half. As a reminder, the solubility is the dissolved amount per volume that the medium holds. A high value points to a readily soluble substance. As usually defined, the logP is the decadic logarithm of the partition coefficient of the neutral form, usually between octanol and water. A lower logP goes with lower lipophilicity. By AUC(0-inf) is commonly meant the area under the concentration-time curve extrapolated to infinity. Lower therefore signals less exposure. One may read the CL/F as clearance divided by bioavailability, as obtained after extravascular dosing. What is called half-life is the time needed for the level to fall by half in the phase considered. In general, Tmax refers to the time at which the peak concentration occurs. For orientation: Cmax means the maximum level reached in the sampled fluid or tissue. One may read the clearance as the volume of plasma or blood freed of the substance per unit of time. A high value points to a high capacity for elimination. Usually bioavailability stands for the share of a dose that reaches the circulation, judged against a reference dose that is usually intravenous. A high value points to good availability.

Series [1] concerns Staphylococcus aureus. As to the kind of experiment: Antibacterial activity against methicillin-susceptible Staphylococcus aureus ATCC 25923 incubated for 18 hrs by broth microdilution method. In kind it is functional. The conditions noted are these: ATCC 25923, 18 h. In general terms: Broth dilution looks for growth in wells or tubes with falling amounts of substance.
Series [2] relates to Staphylococcus aureus. As to the kind of experiment: Antibacterial activity against methicillin-susceptible Staphylococcus aureus CMCC 2603 incubated for 18 hrs by broth microdilution method. It is filed as functional. The conditions noted are these: CMCC 2603, 18 h.
Series [3] has as its system Staphylococcus aureus. As to the kind of experiment: Antibacterial activity against methicillin-susceptible Staphylococcus aureus ATCC 29213 incubated for 18 hrs by broth microdilution method. In kind it is functional. The conditions noted are these: ATCC 29213, 18 h.
Series [4] relates to Staphylococcus aureus. As to the kind of experiment: Antibacterial activity against methicillin-susceptible Staphylococcus aureus ATCC 6538 incubated for 18 hrs by broth microdilution method. In kind it is functional. To be noted: ATCC 6538, 18 h.
Series [5] concerns Staphylococcus aureus. Briefly: Antibacterial activity against methicillin-resistant Staphylococcus aureus ATCC 33591 incubated for 18 hrs by broth microdilution method. It is filed as functional. The conditions noted are these: ATCC 33591, 18 h.
Series [6] concerns Staphylococcus aureus. As to the kind of experiment: Antibacterial activity against methicillin-resistant Staphylococcus aureus ATCC 43300 incubated for 18 hrs by broth microdilution method. It is filed as functional. To be noted: ATCC 43300, 18 h.
In another series the test system is Escherichia coli. As to the kind of experiment: Antibacterial activity against Escherichia coli ATCC 25922 incubated for 18 hrs by broth microdilution method. To be noted: ATCC 25922, 18 h. It is filed as functional.
The test system of a further series is Pseudomonas aeruginosa. As to the kind of experiment: Antibacterial activity against Pseudomonas aeruginosa ATCC 27853 incubated for 18 hrs by broth microdilution method. In kind it is functional. To be noted: ATCC 27853, 18 h.
A short description of series [7]: Cytotoxicity against HEK293A cells after 48 hrs by MTT assay. In kind it is cell-based. To be noted: Homo sapiens, HEK293-A. (In general: Formazan colour is commonly taken as a measure of viable cells.)
Series [8] in a line: Cytotoxicity against human L02 cells after 48 hrs by MTT assay. In kind it is cell-based. To be noted: L02, 48 h.
Series [9] concerns Staphylococcus aureus. As to the kind of experiment: Antibacterial activity against methicillin-resistant Staphylococcus aureus ATCC 33591 in neutropenic Kunming mouse systemic infection model assessed as survival rate at 20 mg/kg, po administered 1 hr post inoculation measured on day 1 to 2. In kind it is functional. The conditions noted are these: ATCC 33591, po.
Series [10] in a line: Solubility of compound in distilled water after 24 hrs by HPLC analysis. It is filed as physicochemical.
The nature of series [11]: Octanol/water partition coefficient, log P of the compound by HPLC assay. It is filed as physicochemical.
Series [12] concerns Staphylococcus aureus. As to the kind of experiment: Antibacterial activity against methicillin-resistant Staphylococcus aureus ATCC 33591 in neutropenic Kunming mouse systemic infection model assessed as survival rate at 20 mg/kg, po administered 1 hr post inoculation measured on day 3. In kind it is functional.
Series [13] relates to Staphylococcus aureus. Briefly: Antibacterial activity against methicillin-resistant Staphylococcus aureus ATCC 33591 in neutropenic Kunming mouse systemic infection model assessed as survival rate at 10 mg/kg, po administered 1 hr post inoculation measured after 1 week. In kind it is functional, organism-based.
A short description of series [14]: AUC (0 to infinity) in Sprague-Dawley rat blood at 10 mg/kg, po by HPLC analysis. It is filed as ADME, organism-based. On the set-up: dose 10 mg/kg, route oral, time infinity.
The nature of series [15]: AUC (0 to infinity) in Sprague-Dawley rat blood at 10 mg/kg, iv by HPLC analysis. It is filed as ADME, organism-based. Further details: dose 10 mg/kg, route intravenous, time infinity.
Series [16] in a line: Clearance in Sprague-Dawley rat blood at 10 mg/kg, po by HPLC analysis. In kind it is ADME, organism-based.
Series [17] can be described thus: Half life in Sprague-Dawley rat blood at 10 mg/kg, po by HPLC analysis. It is filed as ADME, organism-based.
A short description of series [18]: Half life in Sprague-Dawley rat blood at 10 mg/kg, iv by HPLC analysis. In kind it is ADME, organism-based.
Series [19] in a line: Tmax in Sprague-Dawley rat blood at 10 mg/kg, po by HPLC analysis. In kind it is ADME, organism-based.
Series [20] in a line: Tmax in Sprague-Dawley rat blood at 10 mg/kg, iv by HPLC analysis. In kind it is ADME, organism-based.
A short description of series [21]: Cmax in Sprague-Dawley rat blood at 10 mg/kg, po by HPLC analysis. In kind it is ADME, organism-based. On the set-up: dose 10 mg/kg, route oral.
The nature of series [22]: Cmax in Sprague-Dawley rat blood at 10 mg/kg, iv by HPLC analysis. In kind it is ADME, organism-based. On the set-up: dose 10 mg/kg, route intravenous.
Series [23] is described as follows: Clearance in Sprague-Dawley rat blood at 10 mg/kg, iv by HPLC analysis. It is filed as ADME, organism-based.
The nature of series [24]: Oral bioavailability in Sprague-Dawley rat blood at 10 mg/kg by HPLC analysis. In kind it is ADME, organism-based.
Series [25] relates to Staphylococcus aureus. Briefly: Antibacterial activity against methicillin-resistant Staphylococcus aureus. It is filed as functional.
A further series relates to Streptococcus pneumoniae. As to the kind of experiment: Antibacterial activity against Penicillin-resistant Streptococcus pneumoniae. In kind it is functional.
Series [26] relates to Enterococcus. Briefly: Antibacterial activity against vancomycin-resistant Enterococcus. It is filed as functional.
Series [27] relates to Enterococcus. Briefly: Antibacterial activity against Enterococcus. In kind it is functional.

Values after ≈ are worked out from the molar mass of the structure shown. Active and inactive are the calls of the source.

Consider `O=C(NC[C@H]1CN(c2ccc(-n3cc(-c4ccccn4)cn3)c(F)c2)C(=O)O1)C(F)F`, for which the MIC in the series on Staphylococcus aureus [1], against Staphylococcus aureus [2], with Staphylococcus aureus [3], with Staphylococcus aureus [4], in the series on Staphylococcus aureus [5] and in the series on Staphylococcus aureus [6] was 2 µg/mL (≈ 4.64 µM) each time. Moreover, the MIC against Escherichia coli and in the series with Pseudomonas aeruginosa was more than 32 µg/mL throughout. For the same compound, the IC50 is 167 µg/mL (≈ 387 µM) in [7] and more than 400 µg/mL in [8]. For the same compound, the survival at 20 mg/kg turned out to be 40% with Staphylococcus aureus [9] and 30% in the series on Staphylococcus aureus [12] (ATCC 33591, po). In addition, the solubility at 24 h in series [10] turned out to be 29.9 µM (≈ 12.9 µg/mL). For the same compound, the logP in [11] worked out at 1.9. Besides, the outcome in the series with Staphylococcus aureus [13] was Active. Further, the values for the AUC(0-inf) in series [14] and in [15] were 51.6 µg·h/mL and 57.6 µg·h/mL, respectively. For the same compound, in [16], the CL/F is 3.33 mL/min/kg. Further, the half-life in series [17] is 8.87 h; in series [18], 5.4 h. In addition, the Tmax in series [19] stood at 1.5 h; in series [20] it was 6.6 min. In addition, the results for the Cmax in series [21] and in series [22] were 4360 ng/mL and 15000 ng/mL, respectively. This compound had a clearance in [23] of 3 mL/min/kg. The bioavailability in [24] was 89.6%.
`CC(=O)NC[C@H]1CN(c2ccc(N3CCOCC3)c(F)c2)C(=O)O1` [LINEZOLID]: the MIC against Escherichia coli and in the series on Pseudomonas aeruginosa was more than 32 µg/mL in each case. The IC50 was 215 µg/mL (≈ 637 µM) in series [7] and 213 µg/mL (≈ 631 µM) in [8]. For the same compound, in the series on Staphylococcus aureus [9], the survival at 20 mg/kg is 30%. In addition, the outcome in the series on Staphylococcus aureus [12] was Active.
Turning to `CC(=O)NC[C@H]1CN(c2ccc(-n3cc(-c4ccccn4)cn3)c(F)c2)C(=O)O1` [listing 1 of 2 here], the minimum inhibitory concentration (MIC) in the series on Staphylococcus aureus [1], against Staphylococcus aureus [2], in the series on Staphylococcus aureus [3], with Staphylococcus aureus [4], against Staphylococcus aureus [5] and against Staphylococcus aureus [6] was 2 µg/mL (≈ 5.06 µM) each time. The MIC against Escherichia coli was more than 32 µg/mL; against Pseudomonas aeruginosa it was more than 32 µg/mL; in the series on Staphylococcus aureus [25] it was 0.25 µg/mL (≈ 0.632 µM); in the series with Streptococcus pneumoniae it was 0.25 µg/mL (≈ 0.632 µM); against Enterococcus [26], 0.25 µg/mL (≈ 0.632 µM); in the series with Enterococcus [27], 0.25 µg/mL (≈ 0.632 µM). In addition, the IC50 in series [7] was 174 µg/mL (≈ 440 µM); in series [8], 261 µg/mL (≈ 660 µM). The survival at 20 mg/kg in the series on Staphylococcus aureus [9] is 30%. The compound further registered a solubility at 24 h in [10] of 134 µM (≈ 52.8 µg/mL). Also, the logP in series [11] was determined as 1.35. For the same compound, the AUC(0-inf) in series [14] turned out to be 157 µg·h/mL; in series [15] it was 205 µg·h/mL. Further, in series [16], the CL/F is 1.5 mL/min/kg. For the same compound, the half-life in [17] is 13.1 h; in series [18], 0.88 h. Further, the Tmax turned out to be 11 h in series [19] and 6.6 min in series [20]. Further, the Cmax in series [21] was determined as 5770 ng/mL. The compound also had a clearance in series [23] of 0.833 mL/min/kg. This compound also registered a bioavailability in series [24] of 76.7%.
On to `CC(=O)NC[C@H]1CN(c2ccc(-n3cc(-c4ccccn4)cn3)c(F)c2)C(=O)O1` [listing 2 of 2 here], for which the outcome in the series with Staphylococcus aureus [12] was Active.
With `CC(=O)NC[C@H]1CN(c2ccc(-n3cc(-c4ccccn4)cn3)c(F)c2)C(=O)O1.Cl`, the MIC in the series on Staphylococcus aureus [25], against Streptococcus pneumoniae, against Enterococcus [26] and with Enterococcus [27] was 0.25 µg/mL each time.
As to `COC(=O)CC1CCN(C[C@H]2CN(c3ccc(-n4cc(-c5ccccn5)cn4)c(F)c3)C(=O)O2)CC1`, the MIC against Staphylococcus aureus [1], in the series on Staphylococcus aureus [2], against Staphylococcus aureus [3], in the series with Staphylococcus aureus [4], against Staphylococcus aureus [5] and in the series with Staphylococcus aureus [6] was more than 32 µg/mL throughout. The MIC in the series on Escherichia coli and against Pseudomonas aeruginosa was more than 32 µg/mL in each case. For the same compound, the IC50 in series [7] is 224 µg/mL (≈ 454 µM); in [8], more than 400 µg/mL. In series [10], this compound came in with a solubility at 24 h of 92.1 µM (≈ 45.5 µg/mL). This compound also registered a logP in [11] of 1.78.
